The molecules below were run against T1, human TSHR (Homo sapiens, UniProt P16473) (assay: Antagonist activity using TSH-induced cAMP production in human TSHR-stably expressing CHO cells). Settings: human TSH 50 ng/mL.
T1 construct: expressed in transfected cells
Assay type: cell-based
Description: Measurement of Antagonist Activity Using TSH-Induced cAMP Production in Human TSHR-Stably Expressing CHO Cells as an Indicator
The human TSHR gene sequence (reference number NM_000369.2) was inserted into the multicloning site of pcDNA3.1(+). The constructed plasmid vector was introduced into CHO cells using the lipofection method to establish human TSHR-stably expressing CHO cells. The obtained cells were seeded at 5×10^4 cells/well in a 96-well poly-D-lysine-coated plate, and cultured in an F12 culture medium containing 10% FBS, 400 μg/mL of G418, 50 U/mL of penicillin and 50 μg/mL of streptomycin under conditions of 37° C. and 5% CO2 for 1 day. After the culture medium was removed, the cells were washed twice with 100 μL of an assay buffer solution (Hanks' Balanced Salt Solution containing 20 mM HEPES and 1 mM IBMX) per well. 30 μL of a test compound-containing assay buffer solution was added to the well and incubated at room temperature for 15 minutes. Then, 30 μL of an assay buffer solution containing human TSH (final concentration 50 ng/mL, R&D Systems, Inc.) was added, and incubated at 37° C. for 1 hour. The supernatant was removed, a Lysis and Detection Buffer 2 (Cisbio) was added, and the mixture was incubated at room temperature for 1 hour to prepare a cell lysate. According to the instruction manual of a cAMP Gs HiRange kit (Cisbio), the cell lysate, d2-labeled cAMP and anti-cAMP Europium Cryptate labeled antibodies (Cisbio) were reacted in a 384-well white microplate. Then, a fluorescence intensity ratio (measurement wavelength 665 nm/620 nm) was measured using a multi-plate reader (PHERAstar FSX, BMG LABTECH, Japan). The fluorescence intensity ratio of each sample was converted to a cAMP content using a standard curve. The cAMP content was converted as a percentage of the control value to calculate the cAMP production rate. The CAMP production rate was plotted against the test compound concentration using Prism (Graph Pad Software Inc.) to calculate the IC50 value. The IC50 of each test compound is shown in the above tables. In the tables, IC50<0.5 μM: A, 0.5 μM≤IC50<3.0 μM: B, 3.0 μM≤IC50<30 μM: C are shown.

T1 sequence (P16473 21-764): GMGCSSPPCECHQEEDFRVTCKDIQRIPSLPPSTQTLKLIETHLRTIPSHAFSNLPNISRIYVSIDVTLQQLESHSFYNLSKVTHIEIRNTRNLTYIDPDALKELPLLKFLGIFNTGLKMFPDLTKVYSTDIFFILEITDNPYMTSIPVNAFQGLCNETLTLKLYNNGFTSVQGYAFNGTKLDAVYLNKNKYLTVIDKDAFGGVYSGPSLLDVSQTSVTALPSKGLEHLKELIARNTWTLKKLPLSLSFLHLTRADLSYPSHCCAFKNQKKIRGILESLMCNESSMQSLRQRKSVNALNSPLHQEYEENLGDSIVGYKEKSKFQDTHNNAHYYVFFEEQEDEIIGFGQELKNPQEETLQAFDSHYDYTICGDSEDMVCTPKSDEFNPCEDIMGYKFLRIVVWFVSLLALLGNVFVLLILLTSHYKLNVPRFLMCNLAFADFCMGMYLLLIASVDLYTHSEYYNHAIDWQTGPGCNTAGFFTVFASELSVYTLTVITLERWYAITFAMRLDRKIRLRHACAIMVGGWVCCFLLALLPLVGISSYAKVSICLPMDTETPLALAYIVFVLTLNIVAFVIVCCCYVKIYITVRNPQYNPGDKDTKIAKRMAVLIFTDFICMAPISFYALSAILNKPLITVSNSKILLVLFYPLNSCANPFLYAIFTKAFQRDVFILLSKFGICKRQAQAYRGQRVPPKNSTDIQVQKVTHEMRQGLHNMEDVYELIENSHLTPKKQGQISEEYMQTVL

| Structure (SMILES) | IC50 |
| --- | --- |
| CN1C(=O)C(CC(N)=O)Cc2cccc(Oc3ccccc3)c21 (centres unmarked) [Example 1, 2-(1-methyl-2-oxo-8-phenoxy-1,2,3,4-tetrahydroquinolin-3-yl)acetamide] | 3000 to 30000 nM |
| CN1C(=O)C(NC(N)=O)Cc2ccc(F)c(Oc3ccccc3)c21 (centres unmarked) [Example 7] | 500 to 3000 nM |
| CN1C(=O)C(NC(N)=O)Cc2ccc(Cl)c(Oc3ccccc3)c21 (centres unmarked) [Example 8] | 500 to 3000 nM |
| CN1C(=O)C(NC(N)=O)Cc2cccc(Oc3ncccc3C(F)(F)F)c21 (centres unmarked) [Example 9, (1-methyl-2-oxo-8-((3-(trifluoromethyl)pyridine-2-yl)oxy)-1,2,3,4-tetrahydroquinolin-3-yl)urea] | 3000 to 30000 nM |
| CN1C(=O)[C@H](NC(N)=O)Cc2cccc(Oc3ccccc3C(F)(F)F)c21 [Example 10, ((3R)-1-methyl-2-oxo-8-(2-(trifluoromethyl)phenoxy)-1,2,3,4-tetrahydroquinolin-3-yl)urea] | < 500 nM |
| COc1ccccc1Oc1cccc2c1N(C)C(=O)[C@H](NC(N)=O)C2 [Example 11, ((3R)-8-(2-methoxyphenoxy)-1-methyl-2-oxo-1,2,3,4-tetrahydroquinolin-3-yl)urea] | 3000 to 30000 nM |
| CC(C)c1ccccc1Oc1cccc2c1N(C)C(=O)[C@H](NC(N)=O)C2 [Example 17, ((3R)-1-methyl-2-oxo-8-(2-(propan-2-yl)phenoxy)-1,2,3,4-tetrahydroquinolin-3-yl)urea] | 500 to 3000 nM |
| CN1C(=O)[C@H](NC(N)=O)Cc2ccc(F)c(Oc3ccccc3Cl)c21 [Example 19, ((3R)-8-(2-chlorophenoxy)-7-fluoro-1-methyl-2-oxo-1,2,3,4-tetrahydroquinolin-3-yl)urea] | < 500 nM |
| CN1C(=O)[C@H](NC(N)=O)Cc2ccc(Cl)c(Oc3ccccc3Cl)c21 [Example 22, ((3R)-7-chloro-8-(2-chlorophenoxy)-1-methyl-2-oxo-1,2,3,4-tetrahydroquinolin-3-yl)urea] | < 500 nM |
| CN1C(=O)[C@H](NC(N)=O)Cc2ccc(Cl)c(Oc3ccccc3F)c21 [Example 23, ((3R)-7-chloro-8-(2-fluorophenoxy)-1-methyl-2-oxo-1,2,3,4-tetrahydroquinolin-3-yl)urea] | < 500 nM |
| COc1cccc(Oc2c(Cl)ccc3c2N(C)C(=O)[C@H](NC(N)=O)C3)c1 [Example 25] | 500 to 3000 nM |
| CN1C(=O)[C@H](NC(N)=O)Cc2ccc(Cl)c(Oc3ccccc3C(F)F)c21 [Example 27, ((3R)-7-chloro-8-(2-(difluoromethyl)phenoxy)-1-methyl-2-oxo-1,2,3,4-tetrahydroquinolin-3-yl)urea] | < 500 nM |
| COc1ccc(Cl)c(Oc2cccc3c2N(C)C(=O)[C@H](NC(N)=O)C3)c1 [Example 30, ((3R)-8-(2-chloro-5-methoxyphenoxy)-1-methyl-2-oxo-1,2,3,4-tetrahydroquinolin-3-yl)urea] | < 500 nM |
| Cc1ccc2c(c1Oc1ccccc1Cl)N(C)C(=O)[C@H](NC(N)=O)C2 [Example 31, ((3R)-8-(2-chlorophenoxy)-1,7-dimethyl-2-oxo-1,2,3,4-tetrahydroquinolin-3-yl)urea] | < 500 nM |
| CN1C(=O)[C@H](NC(N)=O)Cc2ccc(OCc3ccccc3)c(Oc3ccccc3Cl)c21 [Example 32] | 3000 to 30000 nM |
| CN1C(=O)[C@H](NC(N)=O)Cc2ccc(O)c(Oc3ccccc3Cl)c21 [Example 33, ((3R)-8-(2-chlorophenoxy)-7-hydroxy-1-methyl-2-oxo-1,2,3,4-tetrahydroquinolin-3-yl)urea] | 500 to 3000 nM |
| CCN1C(=O)[C@H](NC(N)=O)Cc2cccc(Oc3ccccc3Cl)c21 [Example 34, ((3R)-8-(2-chlorophenoxy)-1-ethyl-2-oxo-1,2,3,4-tetrahydroquinolin-3-yl)urea] | < 500 nM |
| CN1C(=O)[C@H](NC(N)=O)Cc2cccc(Oc3cc(F)c(F)cc3Cl)c21 [Example 35, ((3R)-8-(2-chloro-4,5-difluorophenoxy)-1-methyl-2-oxo-1,2,3,4-tetrahydroquinolin-3-yl)urea] | < 500 nM |

Now from value to molecule:

| IC50 | Structure (SMILES) |
| --- | --- |
| 500 to 3000 nM | CN1C(=O)C(NC(N)=O)Cc2cccc(Oc3ccccc3)c21 (centres unmarked) [Example 2, (1-methyl-2-oxo-8-phenoxy-1,2,3,4-tetrahydroquinolin-3-yl)urea] |
| 500 to 3000 nM | CN1C(=O)C(NC(N)=O)Cc2cccc(Oc3ccccc3F)c21 (centres unmarked) [Example 3, (8-(2-fluorophenoxy)-1-methyl-2-oxo-1,2,3,4-tetrahydroquinolin-3-yl)urea] |
| 3000 to 30000 nM | CN1C(=O)C(NC(N)=O)Cc2cccc(Oc3cccc(F)c3)c21 (centres unmarked) [Example 4, (8-(3-fluorophenoxy)-1-methyl-2-oxo-1,2,3,4-tetrahydroquinolin-3-yl)urea] |
| 500 to 3000 nM | CN1C(=O)C(NC(N)=O)Cc2cccc(Oc3cccc(C(F)(F)F)c3)c21 (centres unmarked) [Example 5, (1-methyl-2-oxo-8-(3-(trifluoromethyl)phenoxy)-1,2,3,4-tetrahydroquinolin-3-yl)urea] |
| 500 to 3000 nM | CN1C(=O)C(NC(N)=O)Cc2cccc(Oc3cccc(Cl)c3)c21 (centres unmarked) [Example 6, (8-(3-chlorophenoxy)-1-methyl-2-oxo-1,2,3,4-tetrahydroquinolin-3-yl)urea] |
| 3000 to 30000 nM | CN1C(=O)[C@H](NC(N)=O)Cc2cccc(Oc3cccc(C#N)c3)c21 [Example 12, ((3R)-8-(3-cyanophenoxy)-1-methyl-2-oxo-1,2,3,4-tetrahydroquinolin-3-yl)urea] |
| 500 to 3000 nM | COc1cccc(Oc2cccc3c2N(C)C(=O)[C@H](NC(N)=O)C3)c1 [Example 13] |
| 500 to 3000 nM | CCc1ccccc1Oc1cccc2c1N(C)C(=O)[C@H](NC(N)=O)C2 [Example 14] |
| 500 to 3000 nM | CCc1cccc(Oc2cccc3c2N(C)C(=O)[C@H](NC(N)=O)C3)c1 [Example 15] |
| < 500 nM | CN1C(=O)[C@H](NC(N)=O)Cc2cccc(Oc3cc(F)ccc3Cl)c21 [Example 16, ((3R)-8-(2-chloro-5-fluorophenoxy)-1-methyl-2-oxo-1,2,3,4-tetrahydroquinolin-3-yl)urea] |
| < 500 nM | CN1C(=O)[C@H](NC(N)=O)Cc2cccc(Oc3ccccc3C(F)F)c21 [Example 18, ((3R)-8-(2-(difluoromethyl)phenoxy)-1-methyl-2-oxo-1,2,3,4-tetrahydroquinolin-3-yl)urea] |
| < 500 nM | CN1C(=O)[C@H](NC(N)=O)Cc2cccc(Oc3ccc(F)cc3Cl)c21 [Example 20, ((3R)-8-(2-chloro-4-fluorophenoxy)-1-methyl-2-oxo-1,2,3,4-tetrahydroquinolin-3-yl)urea] |
| < 500 nM | CN1C(=O)[C@H](NC(N)=O)Cc2cccc(Oc3cc(F)ccc3C(F)(F)F)c21 [Example 21, ((3R)-8-(5-fluoro-2-(trifluoromethyl)phenoxy)-1-methyl-2-oxo-1,2,3,4-tetrahydroquinolin-3-yl)urea] |
| 500 to 3000 nM | CN1C(=O)[C@H](NC(N)=O)Cc2cccc(Oc3cccc(OC(F)F)c3)c21 [Example 24, ((3R)-8-(3-(difluoromethoxy)phenoxy)-1-methyl-2-oxo-1,2,3,4-tetrahydroquinolin-3-yl)urea] |
| < 500 nM | CN1C(=O)[C@H](NC(N)=O)Cc2ccc(Cl)c(Oc3cccc(F)c3)c21 [Example 26, ((3R)-7-chloro-8-(3-fluorophenoxy)-1-methyl-2-oxo-1,2,3,4-tetrahydroquinolin-3-yl)urea] |
| < 500 nM | CN1C(=O)[C@H](NC(N)=O)Cc2cccc(Oc3cc(F)ccc3C(F)F)c21 [Example 28] |
| < 500 nM | CN1C(=O)[C@H](NC(N)=O)Cc2cccc(Oc3ccc(F)cc3C(F)F)c21 [Example 29] |

— patent publication US20250361210A1, “3,4-DIHYDROQUINOLIN-2(1H)-ONE COMPOUND” (Kissei Pharmaceutical Co., Ltd., priority 2022, published 2025)
